Reference: US9616051B2, “Drug targets to overcome de novo drug-resistance in multiple myeloma” (H. Lee Moffitt Cancer Center and Research Institute, Inc., priority 2008, dated 2017)
Entries after “also recorded” stand apart in the source; their conditions may differ. Like-named read-outs stand apart in the source and are kept apart here.

Assays:
topo IIα [1] = target: T1, topo IIα (Homo sapiens, UniProt P11388); assay: Nuclear-cytoplasmic fractionation and Western blot for topo IIα; format: cell-based; conditions: high-density RPMI-H929 cells, 25 μM, FIG. 13 legend
T1 construct: effect on the intracellular location of topo IIα in treated MM cells; endogenous in cells; host or cells: human multiple myeloma cells NCI-H929
Description: FIGS. 13(A) and (B) are blots from nuclear (nuc)-cytoplasmic (cyto) fractionation of high-density MM cells (n=2). […] Human myeloma RPMI-H929 cells were treated for 24 hours. Cells were then chemically separated into nuclear and cytoplasmic fractions.
Human myeloma cells were placed at plateau concentrations (4×10^6 cells/ml), and NES inhibitors were added at 25 μM for 20 hours. Cells were collected, washed in PBS, and fractionated by a method adapted from Li et al. (Li Y, Bor Y C, Misawa Y, Xue Y, Rekosh D, Hammarskjold M L. An intron with a constitutive transport element is retained in a Tap messenger RNA. Nature 2006; 443: 234-7). Separated fractions containing nuclei or precipitated cytosol were dissolved in 2% SDS buffer and assayed by SDS-PAGE Western blot analysis. Blots were probed with an anti-topo IIα Kis1 antibody (Millipore Corp.). […] Cells grown at log-phase concentrations were also fractionated. After MM cells were treated with NCI-9138 at 25 μM for 20 hours, CRM1-topo IIα complexes were isolated from cells by immunoprecipitation using a combination of both protein A and protein G magnetic beads according to the manufacturer's protocol (Miltenyi Biotec, Cologne, Germany). Co-immunoprecipitation was performed with 2 μg of anti-CRM1 antibody (Santa Cruz Biotechnology, Inc., Santa Cruz, Calif.). Immunoprecipitation samples were separated by SDS-PAGE, transferred to nitrocellulose membranes, and probed with anti-topo IIα Kis1 antibody (Millipore, Corp., Billerica, Mass.) and anti-mouse horseradish peroxidase secondary antibody.

topo IIα [2] = target: T1, topo IIα; assay: as above; format: cell-based; conditions: RPMI-H929 cells, 100 μM, 24 hours, relative to untreated controls
topo IIα [3] = target: T1, topo IIα; assay: Immunofluorescence microscopy of intracellular location of topo IIα; format: cell-based; conditions: 25 μM NES inhibitor; for Nuclear export of topo IIα by immunofluorescence: 20 hours, high-density (plateau) MM cells; for Fold-increase nuclear topo IIα: H929 cells, nucleus v cytoplasm fluorescence vs untreated high-density controls
Description: Slides were viewed with a fully automated, upright Zeiss Axio-ImagerZ.1 microscope (Carl Zeiss A G, Oberkochen, Germany). Briefly, the DAPI image was used as a mask to segment the nuclear region from the Alexa 594 image. The remaining portion of the Alexa 594 image represents the cytosol, and individual nucleus and cytosol images were analyzed.
H929 cells were mock treated with 0.1% DMSO in media or with 25 μM of NES inhibitor. The high density control cells, seen in FIG. 9(A) show high levels of topo II staining outside the nucleus, evidencing export of topo II from the nucleus.

[4] = test system: high-density MM cells (H929); assay: Cleaved caspase 3 apoptosis assay, sensitization to doxorubicin; conditions: for Sensitization of high-density MM cells to doxorubicin / synergism: 25 μM NES inhibitor, doxorubicin 2 μM; for Fold-Increased sensitization to dox: dox/drug (dox 2 μM) divided by dox alone
FLOW = assay: CT-Glo cytotoxicity assay, FLOW cells; format: cell-based; conditions: 72-h CT-Glo, average ± SD
Description: (§1) The molecules with the highest docking scores were assayed for IC50 values. Cultures were tested for cytotoxicity using the CellTiter-Glo assay (CT-Glo cytotoxicity assay; Promega, Madison, Wis.), a luminescence-based homogeneous method for determining the number of viable cells in culture based on quantitation of the ATP present, which signals the presence of metabolically active cells (Corsino, et al., A novel class of cyclin-dependent kinase inhibitors identified by molecular docking act through a unique mechanism. J Biol Chem 2009; 284: 29945-55; Homsi, et al., Src activation in melanoma and Src inhibitors as therapeutic agents in melanoma. Melanoma Res 2009; 19: 167-75). All cells were assayed at log-phase growth conditions. Luminescence was measured with a Synergy 4 microplate reader (Bio-Tek Instruments, Inc., Winooski, Vt.). IC50 values were determined using a sigmoidal equilibrium model regression using XLfit version 5.2 (ID Business Solutions Ltd., Surrey, UK) (Corsino, et al., A novel class of cyclin-dependent kinase inhibitors identified by molecular docking act through a unique mechanism. J Biol Chem 2009; 284: 29945-55).

p53 = p53 nuclear export in low-density myeloma cells (nuclear fraction Western blot); format: cell-based, human; conditions: H929 at low density (log growth), 25 μM, 20 hours
Description: FIG. 14 is a blot of lead compounds tested to determine if nuclear export inhibition was specific to topo IIα protein. p53 was cycled from the nucleus into the cytoplasm in MM cells cultured at log growth conditions. Cells grown at log-phase concentrations were treated with the lead NES inhibitors (25 μM) or a leptomycin control for 20 hours and chemically fractionated. Nuclei were assayed by SDS-PAGE Western blot analysis for p53 protein (anti-p53 (DO-1), Santa Cruz Biotech, Inc). […] Lamin A/C (anti-lamin A/C, BD Pharmingen) is shown as a loading control.
Cells grown at low concentrations were treated with the lead NES inhibitors (25 μM) or a leptomycin B (5 nM) control for 20 hours and chemically fractionated. Nuclei were assayed by SDS-PAGE Western blot analysis for p53 protein.

SK-UT = assay: CT-Glo cytotoxicity assay, SK-UT cells; format: cell-based; conditions: 72-h CT-Glo, average ± SD
Description: as §1

RPMI-8226 (8226) = assay: CT-Glo cytotoxicity assay, 8226 cells; format: cell-based, human; conditions: 8226 cells, 72-h CT-Glo, log-phase (low-density), average ± SD, read-out: IC50
Description: (§2) Compounds identified in Example 1 as the top scoring potential inhibitors for each of the two NES (20 each) were obtained from NCI and structures of these molecules confirmed using NMR and mass spectroscopy analysis, seen in FIGS. 4(A)-(C) and 5(A)-(D). The potential inhibitors were followed up using in vitro model cell cultures. MM cell lines NCI-H929 (H929) and RPMI-8226 (8226) were obtained from and tested for authenticity by the American Type Culture Collection (Manassas, Va.). All cell lines were grown as described previously (Turner, et al., Human topoisomerase IIalpha nuclear export is mediated by two CRM-1-dependent nuclear export signals. J Cell Sci 2004; 117: 3061-71).
as §1

HL-60 = assay: CT-Glo cytotoxicity assay, HL-60 cells; format: cell-based; conditions: 72-h CT-Glo
Description: as §1

Kg-1a = assay: CT-Glo cytotoxicity assay, Kg-1a cells; format: cell-based; conditions: 72-h CT-Glo
Description: as §1

NCI-H929 (H929) = assay: CT-Glo cytotoxicity assay, H929 cells; format: cell-based, human; conditions: average ± SD
Description: as §2, §1

MCF-7 = assay: CT-Glo cytotoxicity assay, MCF-7 cells; format: cell-based; conditions: average ± SD
Description: as §1

WI-38 = assay: CT-Glo cytotoxicity assay, WI-38 cells; format: cell-based; conditions: 72-h CT-Glo
Description: as §1

PBMC = assay: CT-Glo cytotoxicity assay, PBMC; format: cell-based; conditions: 72-h CT-Glo, average ± SD
Description: as §1

[5] = in vivo; cited from earlier work
[6] = for 1 hour; cited from earlier work
topo IIα [7] = conditions: cited from earlier work
[8] = Homo sapiens, NCI-H929, 72-h CT-Glo
[9] = Homo sapiens, MCF7, 72-h CT-Glo

T1 sequence (P11388 whole entry): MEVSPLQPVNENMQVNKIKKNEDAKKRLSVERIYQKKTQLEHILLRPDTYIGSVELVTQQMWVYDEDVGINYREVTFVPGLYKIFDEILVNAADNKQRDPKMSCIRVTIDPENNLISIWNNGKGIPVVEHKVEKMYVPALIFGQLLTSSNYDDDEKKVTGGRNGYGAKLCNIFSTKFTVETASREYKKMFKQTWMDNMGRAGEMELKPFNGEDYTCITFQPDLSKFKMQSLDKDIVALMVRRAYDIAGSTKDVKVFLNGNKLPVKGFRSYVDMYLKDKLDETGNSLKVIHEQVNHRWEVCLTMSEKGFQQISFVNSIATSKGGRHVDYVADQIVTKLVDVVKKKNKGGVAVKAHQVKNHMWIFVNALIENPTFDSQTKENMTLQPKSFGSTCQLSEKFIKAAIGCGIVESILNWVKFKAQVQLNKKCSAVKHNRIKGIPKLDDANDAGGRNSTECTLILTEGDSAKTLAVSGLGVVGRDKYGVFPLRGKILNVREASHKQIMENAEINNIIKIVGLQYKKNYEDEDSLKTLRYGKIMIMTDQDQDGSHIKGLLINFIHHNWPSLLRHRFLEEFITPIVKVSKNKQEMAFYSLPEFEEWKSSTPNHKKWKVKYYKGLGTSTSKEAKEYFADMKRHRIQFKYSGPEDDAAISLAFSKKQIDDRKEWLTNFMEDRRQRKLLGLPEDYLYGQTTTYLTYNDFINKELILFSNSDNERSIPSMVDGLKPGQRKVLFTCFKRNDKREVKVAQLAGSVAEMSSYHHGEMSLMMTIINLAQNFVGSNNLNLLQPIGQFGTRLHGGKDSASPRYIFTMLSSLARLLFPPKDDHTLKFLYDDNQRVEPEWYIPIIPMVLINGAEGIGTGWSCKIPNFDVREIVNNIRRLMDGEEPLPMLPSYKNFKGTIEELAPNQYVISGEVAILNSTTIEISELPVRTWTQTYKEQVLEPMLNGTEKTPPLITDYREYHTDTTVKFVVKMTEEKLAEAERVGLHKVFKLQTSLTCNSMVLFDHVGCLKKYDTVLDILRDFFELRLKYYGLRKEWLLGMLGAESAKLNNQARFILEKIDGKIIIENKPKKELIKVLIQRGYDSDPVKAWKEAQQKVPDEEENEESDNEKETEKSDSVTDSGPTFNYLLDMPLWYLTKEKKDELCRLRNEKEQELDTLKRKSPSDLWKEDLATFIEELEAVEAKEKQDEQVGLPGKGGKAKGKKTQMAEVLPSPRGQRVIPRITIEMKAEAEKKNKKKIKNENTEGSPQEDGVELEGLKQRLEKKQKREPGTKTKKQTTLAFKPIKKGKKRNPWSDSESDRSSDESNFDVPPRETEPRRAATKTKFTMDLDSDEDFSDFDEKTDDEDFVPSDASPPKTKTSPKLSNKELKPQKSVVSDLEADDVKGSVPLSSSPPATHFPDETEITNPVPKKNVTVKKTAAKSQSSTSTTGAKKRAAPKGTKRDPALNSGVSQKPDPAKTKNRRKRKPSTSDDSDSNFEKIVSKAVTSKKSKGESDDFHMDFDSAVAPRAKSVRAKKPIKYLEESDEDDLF

Molecule | Export of topo IIα, nuclear-cytoplasmic fractionation (topo IIα [1]) | Cytoplasmic level / nuclear localization of topo IIα, fractionation Western blot (topo IIα [2]) | Nuclear export of topo IIα by immunofluorescence (topo IIα [3]) | Sensitization of high-density MM cells to doxorubicin / synergism [4] | IC50 (FLOW) | Nuclear export of p53 (p53) | IC50 (SK-UT) | Fold-Increased sensitization to dox [4] | also measured
O=C(C[N+]12CN3CN(CN(C3)C1)C2)c1ccc(Br)cc1 [NCI-32237, 1-(4-bromophenyl)-2-(15,3,5,7-tetraazatricyclo[3.3.1.1~3,7~]dec-1-yl)ethanone] | did not affect nuclear export of topo II | did not affect nuclear export of topo II |  |  |  |  |  |  | 
O/N=C(/C[N+]12CN3CN(CN(C3)C1)C2)c1ccc(I)cc1 [NCI-35024, 1-(4-iodophenyl)-2-(15,3,5,7-tetraazatricyclo[3.3.1.1~3,7~]dec-1-yl)ethanone oxime] |  |  | prevent nuclear export of Topo IIα | significantly (p<0.05) sensitize high density MM cells to doxorubicin |  |  |  |  | 
O=C(Nc1ccc(C2=NCCN2)cc1)c1ccc(C(=O)Nc2ccc(C3=NCCN3)cc2)c([N+](=O)[O-])c1 [NCI-35847, N1,N4-bis(4-(4,5-dihydro-1H-imidazol-2-yl)phenyl)-2-(hydroxy(oxido)amino)terephthalamide] | strongly blocked export of topo IIα | reduced cytoplasmic levels of topo IIα equivalent to that produced by the CRM-1 inhibitor ratjadone C | prevent nuclear export of Topo IIα; also recorded: overlapping staining of topo II with DAPI | synergized with the topo II inhibitor doxorubicin; also recorded: significantly (p<0.05) sensitize high density MM cells to doxorubicin | 62.8 µM | did not prevent export of p53 | 55.3 µM | 2.65 ± 0.90 fold | Fold-increase nuclear topo IIα (topo IIα [3]): 2.81 fold; IC50 (RPMI-8226 (8226)): 7.2 ± 1.4 µM; IC50 (HL-60): 36.5 µM; IC50 (Kg-1a): 73.8 µM; IC50 (NCI-H929 (H929); 72-h CT-Glo): 13.9 µM; IC50 (MCF-7; 72-h CT-Glo): 68.5 µM; IC50 (WI-38): 199 µM
O=C(C[N+]12CN3CN(CN(C3)C1)C2)c1ccc2ccccc2c1 [NCI-36400, 1-(2-naphthyl)-2-(15,3,5,7-tetraazatricyclo[3.3.1.1~3,7~]dec-1-yl)ethanone] |  |  | prevent nuclear export of Topo IIα | significantly (p<0.05) sensitize high density MM cells to doxorubicin |  |  |  |  | 
Brc1ccc(C[N+]23CN4CN(CN(C4)C2)C3)cc1 [NCI-80640, 1-(4-bromobenzyl)-15,3,5,7-tetraazatricyclo[3.3.1.1~3,7~]decane] | smaller or little effect on topo II nucleus export inhibition | reduced cytoplasmic levels of topo IIα equivalent to that produced by the CRM-1 inhibitor ratjadone C | overlapping staining of topo II with DAPI | synergized with the topo II inhibitor doxorubicin | 35.6 µM | significantly inhibit nuclear export of p53 | 25.5 µM | 2.42 ± 1.09 fold | IC50 (RPMI-8226 (8226); Homo sapiens, RPMI-8226): 12 ± 4.2 µM; IC50 (HL-60; Homo sapiens): 11.9 µM; IC50 (Kg-1a; Homo sapiens): 15.2 µM; IC50 (PBMC): 16.4 µM; IC50 (NCI-H929 (H929); [8]): 16.2 µM; IC50 (MCF-7; [9]): 25.9 µM; IC50 (WI-38; Homo sapiens): 56.3 µM
Clc1cc(Cl)c(C[N+]23CN4CN(CN(C4)C2)C3)cc1Cl [NCI-155877, 1-(2,4,5-trichlorobenzyl)-15,3,5,7-tetraazatricyclo[3.3.1.1~3,7~]decane] | smaller or little effect on topo II nucleus export inhibition | did not significantly reduce the level of cytoplasmic topo IIα | overlapping staining of topo II with DAPI | synergized with the topo II inhibitor doxorubicin | 56.8 µM | did not prevent export of p53 | 50.4 µM | 2.82 ± 1.18 fold | Fold-increase nuclear topo IIα (topo IIα [3]): 3.92 fold; IC50 (RPMI-8226 (8226); Homo sapiens, RPMI-8226): 19.5 ± 5.4 µM; IC50 (HL-60; Homo sapiens): 20.4 µM; IC50 (Kg-1a; Homo sapiens): 31.4 µM; IC50 (PBMC): 37.2 µM; IC50 (NCI-H929 (H929); [8]): 33.6 µM; IC50 (MCF-7; [9]): 37.1 µM; IC50 (WI-38; Homo sapiens): 136 µM
CCC(=C/[C@H](C)C/C=C/C(C)=C/[C@@H](C)C(=O)[C@@H](C)[C@H](O)[C@@H](C)C/C(C)=C/C(=O)O)/C=C/[C@@H]1OC(=O)C=C[C@@H]1C [leptomycin B] |  |  |  |  |  |  |  |  | Toxicity in human phase I trial [5]: acute relative toxicities; Concentration with acute toxicity in vitro [6]: < 5 nmol/L; Export mediated by topo IIα NES site A and site B (topo IIα [7]): blocked
Ratjadone C [reference compound] | prevented nuclear export |  |  |  |  |  |  |  | 
